Columns and labels:
Assay type in all cases: in vivo
[1] = system: Echinochloa crus-galli (ECHCG); assay: Test 1A glasshouse assay, post-emergence herbicidal activity; details: Echinochloa crus-galli, 312 h, application rate 250 g/ha, 13 days after application, visual (100%=total damage; 0%=no damage), read-out: Post-emergence Herbicidal Activity (% Phytotoxicity) ECHCG
In short: (§1)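 Phytotoxicity was rated visually on a 0–100% scale 13 days post-spray. Pot-grown seedlings, 8 days old, received aqueous spray from an acetone/water 50:50 formulation with 0.5% Tween 20, then were kept in the glasshouse at 24/16° C day/night, 14 h light, 65% humidity.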

[2] = system: Alopecurus myosuroides (ALOMY); assay: as above; details: Alopecurus myosuroides, 312 h, application rate 250 g/ha, 13 days after application, visual (100%=total damage; 0%=no damage), read-out: Post-emergence Herbicidal Activity (% Phytotoxicity) ALOMY
In short: as §1

Lolium perenne (LOLPE) [3] = assay: as above; details: Lolium perenne, 312 h, application rate 250 g/ha, 13 days after application, visual (100%=total damage; 0%=no damage), read-out: Post-emergence Herbicidal Activity (% Phytotoxicity) LOLPE
In short: as §1

Avena fatua (AVEFA) [4] = assay: as above; details: Avena fatua, 312 h, application rate 250 g/ha, 13 days after application, visual (100%=total damage; 0%=no damage), read-out: Post-emergence Herbicidal Activity (% Phytotoxicity) AVEFA
In short: as §1

[5] = system: Echinochloa crus-galli (ECHCG); assay: Test 1A glasshouse assay, pre-emergence herbicidal activity; details: 312 h, 250 g/ha, 13 days after application, read-out: Pre-emergence herbicidal activity (% phytotoxicity) ECHCG
Experimental: (§2) Seeds of a variety of test species were sown in standard soil in pots. After cultivation for one day (pre-emergence) or after 8 days cultivation (post-emergence) under controlled conditions in a glasshouse (at 24/16° C., day/night; 14 hours light; 65% humidity), the plants were sprayed with an aqueous spray solution derived from the formulation of the technical active ingredient in acetone/water (50:50) solution containing 0.5% Tween 20 (polyoxyethelyene sorbitan monolaurate, CAS RN 9005-64-5). The test plants were then grown under controlled conditions in a glasshouse (at 24/16° C., day/night; 14 hours light; 65% humidity) and watered twice daily. 13 days after application of the test herbicide, for pre- and post-emergence, the test was evaluated visually for percentage phytotoxicity to the plant (where 100%=total damage to plant; 0%=no damage to plant).
(§3) Test plants: Lolium perenne (LOLPE), Alopecurus myosuroides (ALOMY), Echinochloa crus-galli (ECHCG), and Avena fatua (AVEFA); these are all grassy monocotyledonous weeds.

[6] = system: Alopecurus myosuroides (ALOMY); assay: as above; details: 312 h, 250 g/ha, 13 days after application, read-out: Pre-emergence herbicidal activity (% phytotoxicity) ALOMY
Experimental: as §2, §3

Lolium perenne (LOLPE) [7] = assay: as above; details: 312 h, 250 g/ha, 13 days after application, read-out: Pre-emergence herbicidal activity (% phytotoxicity) LOLPE
Experimental: as §2, §3

Avena fatua (AVEFA) [8] = assay: as above; details: 312 h, 250 g/ha, 13 days after application, read-out: Pre-emergence herbicidal activity (% phytotoxicity) AVEFA
Experimental: as §2, §3

Spring Wheat “Freya” = assay: Test 1B glasshouse assay, post-emergence herbicidal activity against cereal crops
[9] = system: Spring Barley “Harrington”; assay: as above
In short: (§4)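 Visual percentage damage (100% = total, 0% = none) read 14 days after application, averaged over two replicates. Plants grown 14 days at 22/16 °C day/night before post-emergence spraying of unformulated compound (IF50/acetone, 0.5% v/v Adigor). Rates usually 60–120 g/ha; cloquintocet-mexyl 50 g/ha co-applied where stated.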

Winter Wheat “Hereward” = assay: as above
In short: as §4

Winter Barley “Suzuka” = assay: as above
In short: as §4

Setaria viridis (SETVI) = assay: Test 1B glasshouse assay, post-emergence herbicidal activity against grassy weeds; details: 14 DAA
In short: (§5)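 Herbicide applied post-emergence at rates such as 60 g/ha (±50 g/ha cloquintocet-mexyl) or 90 and 120 g/ha (with safener), rates varying per compound. Plants kept at 22/16 °C, watered twice daily; percentage phytotoxicity scored visually after 14 days.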

Poa annua (POAAN) = assay: as above; details: 14 DAA
In short: as §5

[10] = system: Lolium multiflorum (LOLMU); assay: as above; details: 14 DAA
In short: as §5

[11] = system: Alopecurus myosuroides (ALOMY); assay: as above; details: 14 DAA
In short: as §5

Avena fatua (AVEFA) [12] = assay: as above; details: 14 DAA
In short: as §5

[13] = herbicide 30 g/ha, cloquintocet-mexyl 50 g/ha
[14] = herbicide 60 g/ha, cloquintocet-mexyl 0 g/ha
[15] = herbicide 60 g/ha, cloquintocet-mexyl 50 g/ha
[16] = 30 g/ha herbicide, 50 g/ha cloquintocet-mexyl
[17] = 60 g/ha herbicide, 0 g/ha cloquintocet-mexyl
[18] = 60 g/ha herbicide, 50 g/ha cloquintocet-mexyl

Cc1cc(C)c(C2C(=O)CC(CCNC(=O)c3cc(Cl)ccn3)C2=O)c(C)c1 (racemic) [Compound A23]
pest or weed control at 250 g/ha [1]: 100% | pest or weed control at 250 g/ha [2]: 90% | pest or weed control at 250 g/ha (Lolium perenne (LOLPE) [3]): 90% | pest or weed control at 250 g/ha (Avena fatua (AVEFA) [4]): 90% | inhibition at 250 g/ha [5]: 100% | inhibition at 250 g/ha [6]: 90% | inhibition at 250 g/ha (Lolium perenne (LOLPE) [7]): 100% | inhibition at 250 g/ha (Avena fatua (AVEFA) [8]): 80% | Percentage Phytotoxicity Spring Wheat “Freya” (Spring Wheat “Freya”; [13]): 5% | Percentage Phytotoxicity Spring Wheat “Freya” (Spring Wheat “Freya”; [14]): 63% | Percentage Phytotoxicity Spring Wheat “Freya” (Spring Wheat “Freya”; [15]): 7% | Percentage Phytotoxicity Spring Barley “Harrington” [9, 13]: 1% | Percentage Phytotoxicity Spring Barley “Harrington” [9, 14]: 75% | Percentage Phytotoxicity Spring Barley “Harrington” [9, 15]: 5% | Percentage Phytotoxicity Winter Wheat “Hereward” (Winter Wheat “Hereward”; [13]): 0% | Percentage Phytotoxicity Winter Wheat “Hereward” (Winter Wheat “Hereward”; [14]): 68% | Percentage Phytotoxicity Winter Wheat “Hereward” (Winter Wheat “Hereward”; [15]): 0% | Percentage Phytotoxicity Winter Barley “Suzuka” (Winter Barley “Suzuka”; [13]): 0% | Percentage Phytotoxicity Winter Barley “Suzuka” (Winter Barley “Suzuka”; [14]): 70% | Percentage Phytotoxicity Winter Barley “Suzuka” (Winter Barley “Suzuka”; [15]): 15% | Post-emergence herbicidal activity, percentage phytotoxicity, SETVI (Setaria viridis (SETVI); [16]): 95% | Post-emergence herbicidal activity, percentage phytotoxicity, SETVI (Setaria viridis (SETVI); [17]): 99% | Post-emergence herbicidal activity, percentage phytotoxicity, SETVI (Setaria viridis (SETVI); [18]): 99% | Post-emergence herbicidal activity, percentage phytotoxicity, POAAN (Poa annua (POAAN); [16]): 0% | Post-emergence herbicidal activity, percentage phytotoxicity, POAAN (Poa annua (POAAN); [17]): 0% | Post-emergence herbicidal activity, percentage phytotoxicity, POAAN (Poa annua (POAAN); [18]): 0% | Post-emergence herbicidal activity, percentage phytotoxicity, LOLMU [10, 16]: 48% | Post-emergence herbicidal activity, percentage phytotoxicity, LOLMU [10, 17]: 90% | Post-emergence herbicidal activity, percentage phytotoxicity, LOLMU [10, 18]: 83% | Post-emergence herbicidal activity, percentage phytotoxicity, ALOMY [11, 16]: 28% | Post-emergence herbicidal activity, percentage phytotoxicity, ALOMY [11, 17]: 75% | Post-emergence herbicidal activity, percentage phytotoxicity, ALOMY [11, 18]: 78% | Post-emergence herbicidal activity, percentage phytotoxicity, AVEFA (Avena fatua (AVEFA) [12]; [16]): 13% | Post-emergence herbicidal activity, percentage phytotoxicity, AVEFA (Avena fatua (AVEFA) [12]; [17]): 80% | Post-emergence herbicidal activity, percentage phytotoxicity, AVEFA (Avena fatua (AVEFA) [12]; [18]): 70%

Reference: US9808003B2, “Herbicidally active 2-(substituted-phenyl)-cyclopentane-1,3-dione compounds and derivatives thereof” (Syngenta Limited, priority 2013, dated 2017)
